# Residue numbers refer to the chain shown, from its start. Where two headings read alike, the source gives them in different places.
# How the values were obtained:
# RET(KD: 658-1114 G810R) = target: T1, RET(KD: 658-1114 G810R) (Homo sapiens, UniProt P07949, G810R); assay: HiBiT-Degradation, RET G810R degradation assay (Nano-Glo HiBiT Lytic), 293T.165 cells; assay type: cell-based; conditions: for Emax / DC50: 6.0 hours; for Emax: % remaining protein, read-out: 293T.165 RET(KD: 658-1114 G810R) 6.0 hours (Emax); for DC50: read-out: 293T.165 RET(KD: 658-1114 G810R) 6.0 hours (DC50)
# T1 construct: 658-1114; expressed in transfected cells; host or cells: 293T.165 (293T cells, generated in-house)
# T1 sequence (P07949 658-1114 G810R): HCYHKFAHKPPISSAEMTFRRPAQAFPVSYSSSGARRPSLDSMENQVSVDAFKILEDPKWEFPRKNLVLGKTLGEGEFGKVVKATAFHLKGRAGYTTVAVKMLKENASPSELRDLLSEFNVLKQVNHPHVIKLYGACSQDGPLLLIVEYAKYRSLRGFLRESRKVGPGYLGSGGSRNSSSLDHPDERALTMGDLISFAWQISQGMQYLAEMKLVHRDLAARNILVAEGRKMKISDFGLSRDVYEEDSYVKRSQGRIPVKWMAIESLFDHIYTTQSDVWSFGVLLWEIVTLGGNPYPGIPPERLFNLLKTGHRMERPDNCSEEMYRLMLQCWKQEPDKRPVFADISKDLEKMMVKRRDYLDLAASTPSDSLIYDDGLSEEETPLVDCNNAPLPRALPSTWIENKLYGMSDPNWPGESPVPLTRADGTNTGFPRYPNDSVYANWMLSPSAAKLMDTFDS
# Text: (§1) Dulbecco's modified Eagle medium (DMEM) no-phenol red media and fetal bovine serum (FBS) were purchased from Gibco (Grand Island, NY, USA). Cell lines ectopically expressing wild-type or G810R RET kinase domain fused with a HiBiT tag were generated in-house (293T. 144 and 293T. 165, respectively). Cell culture flasks and 384-well microplates were acquired from VWR (Radnor, PA, USA). The Nano-Glo® HiBiT Lytic Assay System was purchased from Promega (Madison, WI, USA).
# (§2) RET wild-type (WT) and G810R degradation were assessed using the Nano-Glo® HiBiT Lytic assay (Promega, Medison, WI, USA). To determine the effect of degraders on protein levels, cells were plated in 384-well plates and treated with compounds of interest in duplicates for 6 hours using an 11-point half-log dilution series, with the highest dose set at 10 μM. Cell lysis and addition of the Nano-Glo® HiBiT Lytic Assay reagents was then performed. Luminescence signal was measured using an EnVision™ Multimode plate reader (Perkin Elmer, Santa Clara, CA, USA). The half-maximal degradation concentration (DC50) and % remaining protein (Emax) was then derived from the dose-response curves.
# RET (658-1114) = target: T2, RET (658-1114) (Homo sapiens, UniProt P07949); assay: HiBiT-Degradation, RET wild-type degradation assay (Nano-Glo HiBiT Lytic), 293T.144 cells; assay type: cell-based; conditions: for Emax / DC50: 6.0 hours; for Emax: read-out: 293T.144 RET (658-1114) 6.0 hours (Emax); for DC50: read-out: 293T.144 RET (658-1114) 6.0 hours (DC50)
# T2 construct: 658-1114; expressed in transfected cells; host or cells: 293T.144 (293T cells, generated in-house)
# T2 sequence (P07949 658-1114): T1 sequence (P07949 658-1114 G810R) with R153G
# Text: as §1, §2
# [1] = half-maximal degradation concentration
compound,measurement,setting,value
"CCC1(C(=O)NC(C)C)CCN(c2ccc(-c3nc(-c4cnn(C5CN(C(=O)CC6(O)CCN(c7ccc(NC8CCC(=O)NC8=O)cc7F)CC6)C5)c4)cn4ncc(C#N)c34)cn2)CC1 (stereo not shown) [Compound 184, 1-[5-[3-cyano-6-[1-[1-[2-[1-[4-[(2,6-dioxo-3-piperidyl)amino]-2-fluoro-phenyl]-4-hydroxy-4-piperidyl]acetyl]azetidin-3-yl]pyrazol-4-yl]pyrazolo[1,5-a]pyrazin-4-yl]-2-pyridyl]-4-ethyl-N-isopropyl-piperidine-4-carboxamide]",293T.165 RET(KD: 658-1114 G810R) 6.0 hours (IP) [nM],RET(KD: 658-1114 G810R),++++ (<50 nM = ++++)
same,Emax,RET(KD: 658-1114 G810R),< 30%
same,DC50,RET(KD: 658-1114 G810R); [1],< 50 nM
same,293T.144 RET (658-1114) 6.0 hours (IP) [nM],RET (658-1114),++++ (<50 nM = ++++)
same,Emax,RET (658-1114); % remaining protein,< 30%
same,DC50,RET (658-1114); [1],< 50 nM
"N#Cc1cnn2cc(-c3cnn([C@H]4CC[C@H](CCN5CCC(c6ccc(NC7CCC(=O)NC7=O)cc6F)CC5)CC4)c3)cc(-c3ccc(N4CCN(C(=O)Cc5ccc(F)cn5)CC4)nc3)c12 (stereo partly shown) [Compound 57, 6-[1-[(1r,4r)-4-[2-[4-[4-[(2,6-dioxo-3-piperidyl)amino]-2-fluoro-phenyl]-1-piperidyl]ethyl]cyclohexyl]pyrazol-4-yl]-4-[6-[4-[2-(5-fluoro-2-pyridyl)acetyl]piperazin-1-yl]-3-pyridyl]pyrazolo[1,5-a]pyridine-3-carbonitrile]",Emax,RET(KD: 658-1114 G810R),< 30%
same,DC50,RET(KD: 658-1114 G810R); [1],< 50 nM
same,293T.165 RET(KD: 658-1114 G810R) 6.0 hours (Emax),RET(KD: 658-1114 G810R); HiBiT-Degradation,++++ (< 30% = ++++)
same,293T.165 RET(KD: 658-1114 G810R) 6.0 hours (IP) [nM],RET(KD: 658-1114 G810R); HiBiT-Degradation,++++ (< 50 nM = ++++)
same,DC50,RET(KD: 658-1114 G810R); HiBiT-Degradation,< 50 nM
same,293T.144 RET (658-1114) 6.0 hours (IP) [nM],RET (658-1114); HiBiT-Degradation,++++ (< 50 nM = ++++)
same,DC50,RET (658-1114); HiBiT-Degradation,< 50 nM
same,Emax,RET (658-1114); HiBiT-Degradation,< 30%
"CCC1(C(=O)NC[C@H]2C[C@@H](F)C2)CCN(c2ccc(-c3nc(-c4cnn([C@H]5CC[C@H](N6CCN(c7ccc(NC8CCC(=O)NC8=O)cc7F)CC6)CC5)c4)cn4ncc(C#N)c34)cn2)CC1 (stereo partly shown) [Compound 210, 1-[5-[3-cyano-6-[1-[4-[4-[4-[(2,6-dioxo-3-piperidyl)amino]-2-fluoro-phenyl]piperazin-1-yl]cyclohexyl]pyrazol-4-yl]pyrazolo[1,5-a]pyrazin-4-yl]-2-pyridyl]-4-ethyl-N-[(3-fluorocyclobutyl)methyl]piperidine-4-carboxamide]",293T.165 RET(KD: 658-1114 G810R) 6.0 hours (IP) [nM],RET(KD: 658-1114 G810R),++++ (<50 nM = ++++)
same,Emax,RET(KD: 658-1114 G810R),< 30%
same,DC50,RET(KD: 658-1114 G810R); [1],< 100 nM
same,293T.144 RET (658-1114) 6.0 hours (IP) [nM],RET (658-1114),++++ (<50 nM = ++++)
same,Emax,RET (658-1114); % remaining protein,< 30%
same,DC50,RET (658-1114); [1],< 50 nM
"N#Cc1cnn2cc(-c3cnn(C4CCN(C(=O)CC5(O)CCN(c6ccc(NC7CCC(=O)NC7=O)cc6F)CC5)CC4)c3)nc(-c3ccc(N4CCCN(Cc5ccccc5)CC4)nc3)c12 (stereo not shown) [Compound 108, 4-[6-(4-benzyl-1,4-diazepan-1-yl)-3-pyridyl]-6-[1-[1-[2-[1-[4-[(2,6-dioxo-3-piperidyl)amino]-2-fluoro-phenyl]-4-hydroxy-4-piperidyl]acetyl]-4-piperidyl]pyrazol-4-yl]pyrazolo[1,5-a]pyrazine-3-carbonitrile]",293T.165 RET(KD: 658-1114 G810R) 6.0 hours (IP) [nM],RET(KD: 658-1114 G810R),++++ (<50 nM = ++++)
same,Emax,RET(KD: 658-1114 G810R),< 30%
same,DC50,RET(KD: 658-1114 G810R); [1],< 50 nM
same,293T.144 RET (658-1114) 6.0 hours (IP) [nM],RET (658-1114),++++ (<50 nM = ++++)
same,Emax,RET (658-1114); % remaining protein,< 30%
same,DC50,RET (658-1114); [1],< 50 nM
"COc1cc(N2CCN(C3CCC(n4cc(-c5cn6ncc(C#N)c6c(-c6ccc(N7CC8COCC(C7)N8Cc7ccccn7)nc6)n5)cn4)CC3)CC2)c(F)cc1NC1CCC(=O)NC1=O (stereo not shown) [Compound 205, 6-[1-[4-[4-[4-[(2,6-dioxo-3-piperidyl)amino]-2-fluoro-5-methoxy-phenyl]piperazin-1-yl]cyclohexyl]pyrazol-4-yl]-4-[6-[9-(2-pyridylmethyl)-3-oxa-7,9-diazabicyclo[3.3.1]nonan-7-yl]-3-pyridyl]pyrazolo[1,5-a]pyrazine-3-carbonitrile]",293T.165 RET(KD: 658-1114 G810R) 6.0 hours (IP) [nM],RET(KD: 658-1114 G810R),+++ (<100 nM = +++)
same,Emax,RET(KD: 658-1114 G810R),< 30%
same,DC50,RET(KD: 658-1114 G810R); [1],< 100 nM
same,293T.144 RET (658-1114) 6.0 hours (IP) [nM],RET (658-1114),++++ (<50 nM = ++++)
same,Emax,RET (658-1114); % remaining protein,< 30%
same,DC50,RET (658-1114); [1],< 50 nM
"N#Cc1cnn2cc(-c3cnn([C@H]4CC[C@H](N5CCN(c6c(F)cc(NC7CCC(=O)NC7=O)cc6F)CC5)CC4)c3)nc(-c3ccc(N4CC[C@H](OCc5ccccn5)C4)nc3)c12 (mixture of isomers) [Compound 211, 6-[1-[4-[4-[4-[(2,6-dioxo-3-piperidyl)amino]-2,6-difluoro-phenyl]piperazin-1-yl]cyclohexyl]pyrazol-4-yl]-4-[6-[rac-(3S)-3-(2-pyridylmethoxy)pyrrolidin-1-yl]-3-pyridyl]pyrazolo[1,5-a]pyrazine-3-carbonitrile]",293T.165 RET(KD: 658-1114 G810R) 6.0 hours (IP) [nM],RET(KD: 658-1114 G810R),++++ (<50 nM = ++++)
same,Emax,RET(KD: 658-1114 G810R),< 30%
same,DC50,RET(KD: 658-1114 G810R); [1],< 50 nM
same,293T.144 RET (658-1114) 6.0 hours (IP) [nM],RET (658-1114),++++ (<50 nM = ++++)
same,Emax,RET (658-1114); % remaining protein,< 30%
same,DC50,RET (658-1114); [1],< 50 nM
"CCC1(C(=O)NC(C)C)CCN(c2ccc(-c3cc(-c4cnn(C5CCN(C(=O)CN6CCC(c7ccc(NC8CCC(=O)NC8=O)cc7F)CC6)CC5)c4)cn4ncc(C#N)c34)cn2)CC1 (stereo not shown) [Compound 3, 1-(5-(3-Cyano-6-(1-(1-(2-(4-(4-((2,6-dioxopiperidin-3-yl)amino)-2-fluorophenyl)piperidin-1-yl)acetyl)piperidin-4-yl)-1H-pyrazol-4-yl)pyrazolo[1,5-a]pyridin-4-yl)pyridin-2-yl)-4-ethyl-N-isopropylpiperidine-4-carboxamide]",Emax,RET(KD: 658-1114 G810R),< 30%
same,DC50,RET(KD: 658-1114 G810R); [1],< 50 nM
same,293T.165 RET(KD: 658-1114 G810R) 6.0 hours (Emax),RET(KD: 658-1114 G810R); HiBiT-Degradation,++++ (< 30% = ++++)
same,293T.165 RET(KD: 658-1114 G810R) 6.0 hours (IP) [nM],RET(KD: 658-1114 G810R); HiBiT-Degradation,++++ (< 50 nM = ++++)
same,DC50,RET(KD: 658-1114 G810R); HiBiT-Degradation,< 50 nM
same,293T.144 RET (658-1114) 6.0 hours (IP) [nM],RET (658-1114); HiBiT-Degradation,++++ (< 50 nM = ++++)
same,DC50,RET (658-1114); HiBiT-Degradation,< 50 nM
same,Emax,RET (658-1114); HiBiT-Degradation,< 30%
"CCC1(C(=O)NC(C)C)CCN(c2ccc(-c3nc(-c4cnn(C5CCN(C(=O)CC6(O)CCN(c7cc(OC)c(NC8CCC(=O)NC8=O)cc7Cl)CC6)CC5)c4)cn4ncc(C#N)c34)cn2)CC1 (stereo not shown) [Compound 90, 1-[5-[6-[1-[1-[2-[1-[2-chloro-4-[(2,6-dioxo-3-piperidyl)amino]-5-methoxy-phenyl]-4-hydroxy-4-piperidyl]acetyl]-4-piperidyl]pyrazol-4-yl]-3-cyano-pyrazolo[1,5-a]pyrazin-4-yl]-2-pyridyl]-4-ethyl-N-isopropyl-piperidine-4-carboxamide]",293T.165 RET(KD: 658-1114 G810R) 6.0 hours (IP) [nM],RET(KD: 658-1114 G810R),++++ (<50 nM = ++++)
same,Emax,RET(KD: 658-1114 G810R),< 30%
same,DC50,RET(KD: 658-1114 G810R); [1],< 50 nM
same,293T.144 RET (658-1114) 6.0 hours (IP) [nM],RET (658-1114),++++ (<50 nM = ++++)
same,Emax,RET (658-1114); % remaining protein,< 30%
same,DC50,RET (658-1114); [1],< 50 nM

# From patent US12661410B2, “Compounds for targeted degradation of RET” (C4 Therapeutics, Inc., priority 2020, dated 2026)
